Assays:
[1] = target: MDM2-GST (Homo sapiens, UniProt Q00987); test: Bacterial surface display; assay type: binding; details: for BSD Kd Ratio (NS/S): non-stabilized / stabilized Kd on bacterial surface
[2] = Circular dichroism helicity; assay type: physicochemical; details: for Helicity, Stabilized (S): CD, 10 μM in 1:1 water:acetonitrile, molar ellipticity at 222 nm, stabilized peptide
[3] = target: MDM2 truncate (residues 10–118) (Homo sapiens, UniProt Q00987); test: Bio-layer interferometry; assay type: binding; details: non-stabilized / stabilized Kd in solution (fold improvement upon stabilization)
Sequence of MDM2 truncate (residues 10–118) (Q00987 10-118): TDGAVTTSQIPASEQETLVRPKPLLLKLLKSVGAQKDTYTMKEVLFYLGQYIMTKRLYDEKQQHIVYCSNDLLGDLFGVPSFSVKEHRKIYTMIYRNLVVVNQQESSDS

Sequence of MDM2-GST (Q00987 whole entry): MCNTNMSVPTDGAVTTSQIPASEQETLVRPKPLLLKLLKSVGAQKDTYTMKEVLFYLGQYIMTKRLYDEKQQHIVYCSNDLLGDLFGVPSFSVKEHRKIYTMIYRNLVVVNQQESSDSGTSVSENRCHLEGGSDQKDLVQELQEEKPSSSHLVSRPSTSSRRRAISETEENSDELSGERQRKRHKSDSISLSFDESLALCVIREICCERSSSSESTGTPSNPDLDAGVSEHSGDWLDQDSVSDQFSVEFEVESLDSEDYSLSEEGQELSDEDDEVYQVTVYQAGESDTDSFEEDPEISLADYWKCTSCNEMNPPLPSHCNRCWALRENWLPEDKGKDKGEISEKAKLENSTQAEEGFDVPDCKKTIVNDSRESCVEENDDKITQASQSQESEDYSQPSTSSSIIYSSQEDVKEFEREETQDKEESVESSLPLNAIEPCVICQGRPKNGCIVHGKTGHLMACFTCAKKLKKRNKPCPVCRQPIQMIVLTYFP

Sequence | Helicity, Stabilized (S) [2] | BSD Kd Ratio (NS/S) [1] | BLI Kd Ratio (NS/S) [3] | further results
ETAXDLWRLLXEN (sidechain bridge or staple) [SPD-M0-E(−2)-F19A] | 50% | – | – | binding as displayed on the bacterial cell surface ([1]; negative controls, Figure S1): did not exhibit measurable binding
ETFXDLWRLLXEN (sidechain bridge or staple) [SPD-M0-E(−2)] | 53% | – | – | –
QTFXDLWRLLXEN (sidechain bridge or staple) [SPD-M0-E(−1)] | 40% | – | – | –
QTFXDLWRLLXQN (sidechain bridge or staple) [SPD-M0-E(0)] | 41% | – | – | –

Further lines, with some results ahead:

Helicity, Stabilized (S) [2] | BSD Kd Ratio (NS/S) [1] | BLI Kd Ratio (NS/S) [3] | Sequence | further results
18% | 1.4 | 4.1 | GGTFXGYWADLXAF (sidechain bridge or staple) [SPD-M3-G1] | improvement in affinity over the starting sequence SPD-M0-E(−2) ([1]; bacterial surface, stabilized, after 3 rounds of sorting, n = 3 independent trials of duplicates): ~5 fold; Helicity Ratio (S/NS) ([2]; stabilized / non-stabilized helicity): 1.1
– | 6.6 | 9.4 | VLSFXDYWNLLXGS (sidechain bridge or staple) [SPD-M3-V1] | –
